System: TNF-α
Assay: Serum TNF-α levels in mice treated with lethal doses of endotoxin
Format: in vivo
Settings: for TNF-α (serum level): Table XIII, endotoxin 60 mg/kg + Tβ4 100 μg administered immediately after endotoxin
Excerpt: The results presented in Tables III-V below show effects of Tβ4 respectively on mice cerebellar cGMP levels, blood serum TNF-α levels, and blood serum TNF-α and IL-1α levels.
Using the same methods and materials as in examples 1-3, the effect which Tβ4 has on blood levels of IL-1α, TNF-α, PAG, Txβ2 and 6-keto-PGF1 α, which are pathological mediators of endotoxin induced lethality, was studied.

With Thymosin β4 [Tβ4] the “Serum TNF-α” value (Table IV, endotoxin 60 mg/kg + Tβ4 100 μg, 1 hr) was 823 ± 79 pg/mL, the “Serum TNF-α” value (Table IV, endotoxin 60 mg/kg + Tβ4 100 μg, 3 hr) was 535 ± 47 pg/mL and the “Serum TNF-α” value (Table IV, endotoxin 60 mg/kg + Tβ4 100 μg, 5 hr) was 480 ± 45 pg/mL. For the same substance, the “Serum TNF-α” value (Table V, pretreatment (SOD 3.3 × 10^4 μ/kg, 30 minutes before endotoxin; Tβ4 100 μg/mice), blood collected 1 hr after endotoxin) was 321 ± 26.2 pg/mL, the “TNF-α (serum level)” value (1 hr) was 807 pg/mL and the “TNF-α (serum level)” value (3 hr) was 591 pg/mL. For the same substance, the “TNF-α (serum level)” value (5 hr) was 496 pg/mL.

From patent US5578570A, “Method of treating septic shock using thymosin β4” (The George Washington University Medical Center, priority 1994, dated 1996)
